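All cell lines were grown in 96-well plates and treated with compound for 48 hours. GI50 = concentration required for 50% inhibition of growth.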 Active and inactive are the calls of the source. No stated cut-off is given here; in the data, active = GI50 up to about 1.1 µM and inactive = higher.
Columns and labels:
Assay in all cases: inhibition of tumour cell growth, NCI panel, 48 h
786-0 = system: 786-0
A498 = system: A498
COLO 205 = system: COLO 205
HCT-15 = system: HCT-15
HOP-62 = system: HOP-62
HOP-92 = system: HOP-92
HT-29 = system: HT-29
M14 = system: M14
NCI-H23 = system: NCI-H23
RPMI-8226 = system: RPMI-8226
SF-539 = system: SF-539
SK-MEL-2 = system: SK-MEL-2
SN12C = system: SN12C
SNB-19 = system: SNB-19
UACC-62 = system: UACC-62
UO-31 = system: UO-31
SR = system: SR

| Compound | GI50 (786-0) | GI50 (A498) | GI50 (COLO 205) | GI50 (HCT-15) [µM] | GI50 (HOP-62) | GI50 (HOP-92) | GI50 (HT-29) | GI50 (M14) | GI50 (NCI-H23) | GI50 (RPMI-8226) | GI50 (SF-539) | GI50 (SK-MEL-2) | GI50 (SN12C) | GI50 (SNB-19) | GI50 (UACC-62) | GI50 (UO-31) | GI50 (SR) |
| --- | --- | --- | --- | --- | --- | --- | --- | --- | --- | --- | --- | --- | --- | --- | --- | --- | --- |
| COC(=O)CC(CC(=O)C(=O)OC)C(=O)OC (stereo not drawn) | > 100 µM (inactive) | > 100 µM (inactive) | > 100 µM (inactive) | > 100 | > 100 µM (inactive) | > 100 µM (inactive) | > 100 µM (inactive) | > 100 µM (inactive) | > 100 µM (inactive) | > 100 µM (inactive) | > 100 µM (inactive) | > 100 µM (inactive) | > 100 µM (inactive) | > 100 µM (inactive) | > 100 µM (inactive) | > 100 µM (inactive) | – |
| Nc1ccc2ncc(Nc3ccc(Cl)c(Cl)c3)nc2c1 | 39.6 µM (inactive) | – | 16.7 µM (inactive) | 34 | 42.3 µM (inactive) | 13.6 µM (inactive) | 14.8 µM (inactive) | 19.4 µM (inactive) | 18.7 µM (inactive) | 24.5 µM (inactive) | 17.3 µM (inactive) | 26.4 µM (inactive) | 36.4 µM (inactive) | 24.5 µM (inactive) | 20.2 µM (inactive) | 19.7 µM (inactive) | 57.7 µM (inactive) |
| Cc1ccc(-c2c(N)[n+]([O-])c3ccccc3[n+]2[O-])cc1 | 13.5 µM (inactive) | > 10 µM (inactive) | 15.2 µM (inactive) | 3.42 | 17.1 µM (inactive) | > 100 µM (inactive) | 12.3 µM (inactive) | 12 µM (inactive) | 5 µM (inactive) | 21.4 µM (inactive) | 11 µM (inactive) | 8.51 µM (inactive) | 10.6 µM (inactive) | 12.7 µM (inactive) | 7.18 µM (inactive) | 16.1 µM (inactive) | – |
| CN(C(=N)c1ccccc1)c1ccccc1 | > 100 µM (inactive) | > 10 µM (inactive) | > 100 µM (inactive) | > 100 | – | 51.5 µM (inactive) | > 100 µM (inactive) | > 100 µM (inactive) | > 100 µM (inactive) | > 100 µM (inactive) | > 100 µM (inactive) | > 100 µM (inactive) | > 100 µM (inactive) | > 100 µM (inactive) | > 100 µM (inactive) | > 100 µM (inactive) | – |
| COC(=O)C1=CC2OC13CC1CCC3(C2=O)C1(C)C (stereo not drawn) | 12.2 µM (inactive) | 19.1 µM (inactive) | 15.5 µM (inactive) | 5.36 | 23.4 µM (inactive) | – | 13.2 µM (inactive) | 5.28 µM (inactive) | 16 µM (inactive) | 15.1 µM (inactive) | 14.2 µM (inactive) | 15.2 µM (inactive) | 12.7 µM (inactive) | 21.6 µM (inactive) | 16.3 µM (inactive) | 5.89 µM (inactive) | – |
| O=C(NNC(=O)c1cc(/C=C/c2cccc([N+](=O)[O-])c2)nc(S)n1)Nc1ccc(Cl)cc1 | 47.8 µM (inactive) | > 100 µM (inactive) | 18.4 µM (inactive) | 35.6 | > 100 µM (inactive) | – | 41.8 µM (inactive) | 93.8 µM (inactive) | 77.4 µM (inactive) | 25.5 µM (inactive) | – | > 100 µM (inactive) | > 100 µM (inactive) | – | 50.6 µM (inactive) | 91.2 µM (inactive) | 1.25 µM (inactive) |
| O=C(CSc1nnc(-c2ccc(/N=C\c3ccc(Cl)cc3)cc2)o1)Nc1ccccc1Cl | > 100 µM (inactive) | – | > 100 µM (inactive) | > 100 | > 100 µM (inactive) | – | > 100 µM (inactive) | > 100 µM (inactive) | > 100 µM (inactive) | > 100 µM (inactive) | – | > 100 µM (inactive) | > 10 µM (inactive) | > 100 µM (inactive) | > 100 µM (inactive) | > 100 µM (inactive) | > 100 µM (inactive) |
| COc1ccc2c(c1)[n+]([O-])c(-c1ccccc1)c(N)[n+]2[O-] | 63.2 µM (inactive) | 69.3 µM (inactive) | 20.4 µM (inactive) | 35.3 | 39 µM (inactive) | – | 52.7 µM (inactive) | 29.4 µM (inactive) | 23.9 µM (inactive) | 77.1 µM (inactive) | 32.4 µM (inactive) | 46 µM (inactive) | 51.8 µM (inactive) | 42.5 µM (inactive) | 30.3 µM (inactive) | 63.1 µM (inactive) | – |
| O=C(CSc1nnc(Cc2ccccc2)o1)Nc1cccc(Cl)c1 | 96.8 µM (inactive) | > 100 µM (inactive) | > 100 µM (inactive) | 98.4 | > 100 µM (inactive) | – | 66.2 µM (inactive) | 69 µM (inactive) | 66.2 µM (inactive) | 72.4 µM (inactive) | > 100 µM (inactive) | 70.8 µM (inactive) | 97.1 µM (inactive) | > 100 µM (inactive) | – | > 100 µM (inactive) | – |
| NC(=O)NNC/C(Cl)=C(\Cl)C(=O)O | > 100 µM (inactive) | > 100 µM (inactive) | > 100 µM (inactive) | > 100 | > 100 µM (inactive) | – | > 100 µM (inactive) | > 100 µM (inactive) | > 100 µM (inactive) | > 100 µM (inactive) | > 100 µM (inactive) | > 100 µM (inactive) | > 100 µM (inactive) | > 100 µM (inactive) | > 100 µM (inactive) | > 100 µM (inactive) | – |
| c1ccc(CCCC2Sc3cccc4cccc(c34)S2)cc1 | > 100 µM (inactive) | – | > 100 µM (inactive) | > 100 | > 100 µM (inactive) | > 100 µM (inactive) | 78.9 µM (inactive) | > 100 µM (inactive) | > 100 µM (inactive) | 52.7 µM (inactive) | > 100 µM (inactive) | > 100 µM (inactive) | > 100 µM (inactive) | > 100 µM (inactive) | > 100 µM (inactive) | > 100 µM (inactive) | – |
| C/C(=N\NC(=O)c1ccccc1O)c1c(O)cc(C)oc1=O | > 100 µM (inactive) | > 100 µM (inactive) | > 100 µM (inactive) | 91.2 | 98.6 µM (inactive) | 10.4 µM (inactive) | > 100 µM (inactive) | > 100 µM (inactive) | 84.1 µM (inactive) | 50.4 µM (inactive) | 62.8 µM (inactive) | > 100 µM (inactive) | > 100 µM (inactive) | 63.5 µM (inactive) | 25.6 µM (inactive) | 31.5 µM (inactive) | – |
| CCOC(=O)C(C(=O)OCC)=C1N[C@H](C(=O)OCC)CS1 | > 100 µM (inactive) | – | > 100 µM (inactive) | > 100 | > 100 µM (inactive) | – | > 100 µM (inactive) | > 100 µM (inactive) | > 100 µM (inactive) | > 100 µM (inactive) | > 100 µM (inactive) | > 100 µM (inactive) | > 100 µM (inactive) | > 100 µM (inactive) | > 100 µM (inactive) | > 100 µM (inactive) | > 100 µM (inactive) |
| O=NN1CCN=C1c1ccc([N+](=O)[O-])cc1 | > 100 µM (inactive) | – | > 100 µM (inactive) | > 100 | > 100 µM (inactive) | > 100 µM (inactive) | > 100 µM (inactive) | > 100 µM (inactive) | > 100 µM (inactive) | > 100 µM (inactive) | > 100 µM (inactive) | – | > 100 µM (inactive) | > 100 µM (inactive) | > 100 µM (inactive) | 66.2 µM (inactive) | > 100 µM (inactive) |
| CN(C)CCNC(=O)c1cccc2[nH]c(-c3ccccc3)nc12 | 36.3 µM (inactive) | 13.1 µM (inactive) | 11.6 µM (inactive) | 15.8 | 22.3 µM (inactive) | 20.3 µM (inactive) | 19.8 µM (inactive) | 17.3 µM (inactive) | 17.4 µM (inactive) | 32.1 µM (inactive) | 12.2 µM (inactive) | 18.5 µM (inactive) | 16.7 µM (inactive) | 32.5 µM (inactive) | 18.5 µM (inactive) | 12.8 µM (inactive) | – |
| CC(C)C(N)=O [ISOBUTYRAMIDE] | > 5000 µM (inactive) | – | > 5000 µM (inactive) | > 5000 | > 5000 µM (inactive) | > 5000 µM (inactive) | > 5000 µM (inactive) | > 5000 µM (inactive) | > 5000 µM (inactive) | > 5000 µM (inactive) | > 5000 µM (inactive) | > 5000 µM (inactive) | > 5000 µM (inactive) | – | > 5000 µM (inactive) | > 5000 µM (inactive) | > 5000 µM (inactive) |
| COc1cccc2c1OC1Sc3ccccc3-c3nn(-c4ccccc4)c-2c31 (stereo not drawn) | > 100 µM (inactive) | > 100 µM (inactive) | > 100 µM (inactive) | – | > 100 µM (inactive) | > 100 µM (inactive) | > 100 µM (inactive) | – | > 100 µM (inactive) | > 100 µM (inactive) | > 100 µM (inactive) | > 100 µM (inactive) | – | – | – | > 100 µM (inactive) | – |
| COC(=O)C1=CC2C(=O)OC1C1C(=O)NC(=O)C21 (stereo not drawn) | > 100 µM (inactive) | > 100 µM (inactive) | > 100 µM (inactive) | – | > 100 µM (inactive) | > 100 µM (inactive) | > 100 µM (inactive) | > 100 µM (inactive) | > 100 µM (inactive) | > 100 µM (inactive) | > 100 µM (inactive) | – | > 100 µM (inactive) | > 100 µM (inactive) | > 100 µM (inactive) | > 100 µM (inactive) | > 100 µM (inactive) |
| COc1cc2c(cc1OC)/C(=C\c1ccccc1N)C(=O)OC2 | 3.07 µM (inactive) | – | 12 µM (inactive) | 7.19 | 23.3 µM (inactive) | 12.4 µM (inactive) | 11.8 µM (inactive) | 19.3 µM (inactive) | 16.1 µM (inactive) | 1.84 µM (inactive) | 15.7 µM (inactive) | 12.1 µM (inactive) | 13.2 µM (inactive) | 16.7 µM (inactive) | 16.3 µM (inactive) | 15.5 µM (inactive) | – |

From ChEMBL document CHEMBL1201862, “PubChem BioAssay data set” (2004)
